# From patent publication US20200397894A1, “COMPOSITIONS AND METHODS FOR TREATING CANCER” (University of Virginia Patent Foundation, priority 2016, published 2020)
# Key:
# DM93 cells [1] = experiment: BrdU staining and flow cytometry (rereplication); assay type: cell-based, human; conditions: DM93, pevonedistat
# Protocol: The effects of pevonedistat and/or silencing of cell cycle-associated proteins on cell cycle distribution or rereplication were assessed by flow cytometry according to the manufacturer's instructions. Different melanoma lines were transfected with si-GL2, si-CDT2, si-CDT1, si-SET8, si-p21, or si-geminin for a time ranging from 24 to 96 hours. At the end of treatment, cells were pulsed with BrdU (10 nM) for 1 hour in the dark prior to harvesting. Cells were washed with PBS and staining solution before the fixation and permeabilization steps according to the manufacturer's instructions. Cells were subsequently stained with anti-BrdU antibody solution for 20 minutes at room temperature, washed, and stained with 7-AAD solution for 30 minutes at 4° C. The cells were resuspended in 1 ml of staining buffer and kept overnight at 4° C. before analysis. Samples were analyzed on a FFACSCAN™ (Becton, Dickinson and Company, Franklin Lakes, N.J., United States of America), and different phases of the cell cycle were determined using FLOWJO® (FLOWJO, LLC, Ashland, Oreg., United States of America) and ModFit (Verity Software House, Topsham, Me., United States of America) software.
# DM93 cells [2] = experiment: Clonogenic survival assay; assay type: cell-based, human
# Protocol: (§1) Cell survival following CDT2 depletion or pevonedistat treatment was assessed by clonogenic survival assay, preformed in triplicates. 72 hours following transfection with si-GL2 or si-CDT2, cells were trypsinized, counted, and seeded in 60 mm dishes. For pevonedistat treatments, cells were counted and seeded in 60 mm dishes and treated 24 hours later with various doses of pevonedistat or with DMSO. Cells were cultured for two weeks and were subsequently washed in cold PBS, fixed in cold methanol for 10 minutes, and stained with crystal violet (0.5%) for 10 minutes. Plates were washed with water, dried, and pictures were captured using IMAGE LAB™ software (BioRad Laboratories, Inc., Hercules, Calif., United States of America). Quantification of colonies was performed using QUANTITY ONE® software (BioRad Laboratories, Inc., Hercules, Calif., United States of America). Results are represented as mean±s.e.m. of triplicates normalized to the corresponding DMSO-treated or si-GL2 transfected controls.
# VMM39 cells = experiment: Clonogenic survival assay; assay type: cell-based, human
# Protocol: as §1
# DM93 melanoma xenografts = experiment: Melanoma flank xenograft in nude mice; assay type: in vivo
# Protocol: (§2) All animal experiments were performed after approval of animal protocols by the Animal Care and Use Committee (ACUC) of the University of Virginia. Animals were housed and handled in accordance with the guidelines of the ACUC of the University of Virginia. The effect of pevonedistat on melanoma growth was tested in flank xenograft models. Foxn1^nu (20-25 g body weight, 4-5 weeks old females) athymic nude immune-deficient mice (Harlan Laboratories, now Envigo, Indianapolis, Ind., United States of America) were used in this study. Pevonedistat was dissolved in sterile 10% DMSO containing PBS (stock 1 mM), filtered, and stored in −20° C. until use. DM93, VMM39, SLM2, DM331, or SK-MEL-24 (2×10^6) melanoma cells were implanted in both flanks of immune-deficient mice (n=12 mice per group) and tumor growth was monitored until they grow to an average volume of 150-200 mm^3, and mice were randomized into groups for treatment. Animals were administered 0.2 mL pevonedistat solution (30 or 60 mg/kg body weight as indicated) intraperitoneally on a schedule of two cycles of five-day treatment followed by five treatment-free days, for 3 weeks, or more as indicated. Control animals were treated with an equal volume of sterile vehicle (10% DMSO in PBS). Where indicated, mice received control rodent diet, or rodent diet with 417 mg/kg PLX4720 (Research Diets, Inc. New Brunswick, N.J., United States of America). Tumors were measured with an electronic caliper every other day for 3 weeks post-drug injection. Animal weight was recorded once a week to detect any weight loss due to the toxicity of drug treatment or tumor burden. At the end of the treatment, animals were euthanized and tumors harvested for further processing. The results shown are mean tumor volumes±s.e.m; *p<0.05, **p<0.01, ***p<0.001.
# SLM2 xenografts = experiment: Melanoma flank xenograft in nude mice; assay type: in vivo; conditions: 60 mg/kg; p=2.3×10^−3
# Protocol: as §2
# [3] = system: cullin ubiquitylation substrates (CDT2, CDT1, p21, p27) in DM93 cells; experiment: Immunoblotting of cullin ubiquitylation substrates; assay type: cell-based, human; conditions: DM93, increasing doses for 24 hours; significant levels at 1 μM
# Protocol: Melanoma cells were lysed with RIPA lysis buffer (50 mM Tris, pH 8.0; 150 mM NaCl, 1% NP-40; 0.5% sodium deoxycholate; 0.1% SDS; 1 mM Benzamidine-HCl; 0.5 μg/ml Leupeptin; 0.5 μg/ml Aprotinin; 1 μg/ml pepstatin; 20 mM NaF; 20 mM Na3VO4), and equal amounts of protein were electrophoretically separated in a polyacrylamide 8-12% gel (Bio-Rad Laboratories, Inc., Hercules, Calif., United States of America), trans-blotted to a nitrocellulose membrane, and incubated overnight with primary antibodies at 4° C. The following antibodies were used: Anti-p21 (C19), anti-p27 (C19), anti-p53 (DO-1), and anti-tubulin (10D8) were purchased from Santa Cruz Biotechnology, Inc. (California, United States of America). Antibodies against SET8, CHK1, CHK2, p-CHK1 (S375), p-CHK2 (T68), H2AX and p-H2AX (γH2AX; T139), and PARP were purchased from Cell Signaling Technology, Inc. (Danvers, Mass., United States of America). Anti-Cul3 was purchased from Bethyl Laboratories (Montgomery, Tex., United States of America). Anti-CDT1 and anti-CDT2 antibodies were described before (Abbas et al., 2010). The immunoblot signals were detected by enhanced chemiluminescence. For murine melanoma xenografts, tumors were isolated, washed three times with cold PBS, and frozen at −80° C. until use. […]
smiles,measurement,setting,value
"NS(=O)(=O)OCC1CC(n2ccc3c(NC4CCc5ccccc54)ncnc32)CC1O [pevonedistat, ((1S,2S,4R)-4-(4-((1S)-2,3-Dihydro-H-inden-1-ylamino)-7H-pyrrolo(2,3-d)pyrimidin-7-yl)-2-hydroxycyclopentyl)methyl sulphamate]",cells with rereplication within the same cell cycle (BrdU labeling),DM93 cells [1]; 24 hours,17.3%
same,cells with rereplication within the same cell cycle (BrdU labeling),DM93 cells [1]; 48 hours,61.7%
same,drug concentration inhibiting proliferation (clonogenic survival),DM93 cells [2],100 nM
same,drug concentration inhibiting proliferation (clonogenic survival),VMM39 cells,50 nM
same,growth of sg-control DM93 xenografts,"DM93 melanoma xenografts; 30 mg/kg, p=0.009",significantly inhibited the growth
same,growth of sg-p21-1 DM93 xenografts,"DM93 melanoma xenografts; 30 mg/kg, p=0.092",failed to inhibit the growth
same,growth of sg-SET8-1 DM93 xenografts,"DM93 melanoma xenografts; 30 mg/kg, p=0.66",failed to inhibit the growth
same,tumor regression,DM93 melanoma xenografts; 30 or 60 mg/kg,did not result in tumor regression
same,tumor regrowth after cessation of treatment,"DM93 melanoma xenografts; either drug concentration, up to 10 days following cessation",not detectable
same,tolerability,"DM93 melanoma xenografts; nude mice, 30 or 60 mg/kg, 5 days on/5 days off, two cycles",well tolerated
same,growth of SLM2 xenografts,SLM2 xenografts,significantly inhibited the growth
same,"cullin ubiquitylation substrates CDT2, CDT1, p21 and p27",[3],dose-dependent increase
